One assay has as its system U2OS cells. Put plainly: Cell proliferation assay (CellTiter 96 AQueous). In kind it is cell-based. The settings on record: 10 μM, 5 days; same extent as shRNA-mediated NUAK1 knockdown. As for the experimental part:
(§1) Cell proliferation assays were carried out colorimetrically in 96-well plates using the CellTiter 96® AQueous Non-Radioactive Cell Proliferation Assay kit (Promega) following the manufacturer's protocol. Initially, 2000 cells per well were seeded for U2OS cells and 3000 cells per well were seeded for MEFs. The proliferation assays were carried out over 5 days in the presence or absence of 10 μM HTH-01-015 or WZ4003.

For assay [1], the system named is MYPT1 Ser445 phosphorylation. Put plainly: MYPT1 Ser445 phosphorylation, HEK-293 Flp/In T-Rex overexpressing HA-NUAK1[A195T]. The settings on record: cells expressing drug-resistant NUAK1[A195T]; 30 μM. In kind it is cell-based, human. As to the method:
(§2) HEK (human embryonic kidney)-293 and U2OS cells were cultured in DMEM (Dulbecco's modified Eagle's medium) supplemented with 10% FBS, 2 mM glutamine and 1×antibacterial/antimycotic solution. NUAK1^+/+ and NUAK1^−/− MEFs were cultured in DMEM supplemented with 10% (v/v) FBS and 2 mM glutamine, 1×antibacterial/antimycotic solution, 1% (v/v) non-essential amino acids and 1% (v/v) sodium pyruvate. HEK-293 Flp/In T-Rex cell lines were cultured in DMEM supplemented with 10% (v/v) FBS and 2 mM glutamine, 1×antibacterial/antimycotic solution, 100 μg/ml hygromycin and 15 μg/ml blasticidin. Supplementing the culture medium with 0.1 μg/ml doxycycline for 16–24 h induced protein expression in the HEK-293 Flp/In T-Rex cells. Cell counting was carried out using Invitrogen Countess following the manufacturer's protocol. A cell-detachment assay was carried out on HEK-293 cells using PBS-EDTA-based cell dissociation buffer as described previously. An inhibitor dose-dependence assay was carried out by treating the cells with various concentrations of the inhibitors as indicated in the Figure legends. The inhibitors were dissolved in DMSO and the total concentration of DMSO in the culture media never exceeded 1%. Transient transfections of HEK-293 cells were carried out using PEI [24]. Stable transfections were carried out in HEK-293 Flp/In T-Rex cells (Invitrogen) following the manufacturer's protocol. […]

In assay [2] the test system is MYPT1 Ser445 phosphorylation. Put plainly: MYPT1 Ser445 phosphorylation, HEK-293 Flp/In T-Rex overexpressing wild-type HA-NUAK1. The format is cell-based, human. The settings on record: HEK-293 expressing wild-type NUAK1; 3–10 μM. As for the experimental part:
as §2

The subject of another assay is MEFs. Put plainly: Cell proliferation assay (CellTiter 96 AQueous). In kind it is cell-based, mouse. The settings on record: 10 μM, 5 days; same extent as NUAK1-knockout. As for the experimental part:
as §1

The subject of another assay is NUAK1+/+ MEFs. Put plainly: Wound-healing (migration) assay. The format is cell-based, mouse. The settings on record: 10 μM. As for the experimental part:
MEFs were split and an approximately equal number of cells were loaded into the left and right chambers of the IBIDI Self-Insertion Inserts (catalogue number 80209). Each insert was placed in one well of a 12-well plate and the cells were seeded with or without treatment with the inhibitors. For the comparison of the migration properties of different MEFs on the same video, a single insert was used and an equal number of MEFs were counted and loaded on either chamber of the same insert. To study the effect of inhibitors on cell migration, wound-healing assays on MEFs were also carried out on separate inserts with or without treatment with a 10 μM concentration of WZ4003 or HTH-01-015. Inhibitors were added to the cells 1 h before the start of the migration assay. The experiments were carried out in triplicate. After overnight incubation at 37°C and 5% CO2, the insert was removed and the migration of cells into the 500 μm gap between the chambers was observed. The wound-gap healing properties of the cells were observed over a period of 15–20 h under a Nikon Eclipse Ti microscope with images taken every 2 min by a Photometrics cascade II CCD (charge-coupled device) camera using Nikon NIS Elements software.

The target in the next assay is MLK1 (Homo sapiens, UniProt P80192). Put plainly: Kinase profiling. In kind it is biochemical. The settings on record: 0.1 or 1 μM inhibitor; mean of triplicate. As to the method:
(§3) Kinase inhibitor specificity profiling assays were carried out at The International Centre for Protein Kinase Profiling (http://www.kinase-screen.mrc.ac.uk/) against a panel of 140 protein kinases as described previously. Results are presented as a percentage of kinase activity in DMSO control reactions. Protein kinases were assayed in vitro with 0.1 or 1 μM of the inhibitors and the results are presented as an average of triplicate reactions±S.D. or in the form of comparative histograms.

The next assay deals with EPH-B2 (Homo sapiens, UniProt P29323). Put plainly: Kinase profiling. In kind it is biochemical. The settings on record: 0.1 or 1 μM inhibitor; mean of triplicate. As for the experimental part:
as §3

For a further assay, the target named is GSK3β (Homo sapiens, UniProt P49841). Put plainly: Kinase profiling. The format is biochemical. The settings on record: 0.1 or 1 μM inhibitor; mean of triplicate. As to the method:
as §3

The target in the next assay is TLK1 (Homo sapiens, UniProt Q9UKI8). Put plainly: Kinase profiling. In kind it is biochemical. The settings on record: 0.1 or 1 μM inhibitor; mean of triplicate. As to the method: as §3
Sequence of TLK1 (Q9UKI8 whole entry): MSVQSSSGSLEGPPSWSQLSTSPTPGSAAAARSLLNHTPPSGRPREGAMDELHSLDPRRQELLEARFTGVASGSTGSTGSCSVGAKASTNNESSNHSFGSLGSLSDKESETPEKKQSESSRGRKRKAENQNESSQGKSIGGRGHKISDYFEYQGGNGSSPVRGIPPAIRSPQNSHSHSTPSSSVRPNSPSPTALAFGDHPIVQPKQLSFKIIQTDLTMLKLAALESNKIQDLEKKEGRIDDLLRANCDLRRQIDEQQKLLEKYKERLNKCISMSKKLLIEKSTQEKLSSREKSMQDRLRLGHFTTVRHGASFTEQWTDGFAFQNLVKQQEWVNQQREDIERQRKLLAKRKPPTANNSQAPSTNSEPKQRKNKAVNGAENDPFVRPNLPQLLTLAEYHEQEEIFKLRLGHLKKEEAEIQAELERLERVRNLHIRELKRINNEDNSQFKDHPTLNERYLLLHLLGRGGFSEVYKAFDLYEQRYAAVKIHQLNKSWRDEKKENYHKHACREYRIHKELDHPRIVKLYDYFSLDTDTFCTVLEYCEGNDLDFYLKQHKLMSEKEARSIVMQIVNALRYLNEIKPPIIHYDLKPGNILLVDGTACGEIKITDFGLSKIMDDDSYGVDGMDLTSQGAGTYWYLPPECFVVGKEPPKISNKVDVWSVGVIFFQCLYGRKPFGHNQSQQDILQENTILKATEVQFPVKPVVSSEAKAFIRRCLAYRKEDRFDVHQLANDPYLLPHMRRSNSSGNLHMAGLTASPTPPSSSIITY
In the next assay the target is MINK1 (Homo sapiens, UniProt Q8N4C8). Put plainly: Kinase profiling. In kind it is biochemical. The settings on record: 0.1 or 1 μM inhibitor; mean of triplicate. As to the method: as §3
Sequence of MINK1 (Q8N4C8 whole entry): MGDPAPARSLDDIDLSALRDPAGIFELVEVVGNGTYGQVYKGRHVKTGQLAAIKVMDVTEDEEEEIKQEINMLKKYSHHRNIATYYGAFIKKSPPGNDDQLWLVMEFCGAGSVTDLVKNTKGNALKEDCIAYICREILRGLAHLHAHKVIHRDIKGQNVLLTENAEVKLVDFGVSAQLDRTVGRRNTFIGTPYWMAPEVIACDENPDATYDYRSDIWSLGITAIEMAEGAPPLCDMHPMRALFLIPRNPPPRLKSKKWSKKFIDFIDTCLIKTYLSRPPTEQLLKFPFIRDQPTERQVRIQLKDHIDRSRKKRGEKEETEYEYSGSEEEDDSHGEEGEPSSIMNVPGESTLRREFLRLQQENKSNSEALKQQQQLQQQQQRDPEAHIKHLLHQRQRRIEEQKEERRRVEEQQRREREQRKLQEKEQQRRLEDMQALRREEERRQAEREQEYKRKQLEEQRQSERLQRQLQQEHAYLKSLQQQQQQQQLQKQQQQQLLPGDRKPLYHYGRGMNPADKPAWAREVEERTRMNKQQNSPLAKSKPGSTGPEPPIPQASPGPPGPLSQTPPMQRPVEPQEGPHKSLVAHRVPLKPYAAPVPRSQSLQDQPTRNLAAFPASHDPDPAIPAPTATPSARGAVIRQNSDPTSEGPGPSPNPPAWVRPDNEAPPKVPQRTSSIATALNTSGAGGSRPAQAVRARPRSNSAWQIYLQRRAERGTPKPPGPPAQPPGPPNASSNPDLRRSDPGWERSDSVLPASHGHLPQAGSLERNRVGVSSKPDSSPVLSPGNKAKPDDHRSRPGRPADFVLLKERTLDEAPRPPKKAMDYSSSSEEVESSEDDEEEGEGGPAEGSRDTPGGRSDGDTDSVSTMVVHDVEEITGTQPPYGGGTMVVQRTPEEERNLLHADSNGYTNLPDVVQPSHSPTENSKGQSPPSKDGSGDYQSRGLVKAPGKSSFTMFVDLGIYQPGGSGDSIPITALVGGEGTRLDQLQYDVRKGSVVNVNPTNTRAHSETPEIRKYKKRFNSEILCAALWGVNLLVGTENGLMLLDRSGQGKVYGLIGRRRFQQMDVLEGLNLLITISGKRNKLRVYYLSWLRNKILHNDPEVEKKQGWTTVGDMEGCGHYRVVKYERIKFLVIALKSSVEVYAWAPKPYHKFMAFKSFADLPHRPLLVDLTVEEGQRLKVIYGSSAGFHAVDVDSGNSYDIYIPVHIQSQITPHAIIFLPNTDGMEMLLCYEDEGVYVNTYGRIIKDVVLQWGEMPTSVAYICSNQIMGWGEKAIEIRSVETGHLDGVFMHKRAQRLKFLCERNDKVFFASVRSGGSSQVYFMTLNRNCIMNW
The target in a further assay is MKK6 (Homo sapiens, UniProt P52564). Put plainly: Kinase profiling. In kind it is biochemical. The settings on record: 0.1 or 1 μM inhibitor; mean of triplicate. As to the method: as §3
Sequence of MKK6 (P52564 whole entry): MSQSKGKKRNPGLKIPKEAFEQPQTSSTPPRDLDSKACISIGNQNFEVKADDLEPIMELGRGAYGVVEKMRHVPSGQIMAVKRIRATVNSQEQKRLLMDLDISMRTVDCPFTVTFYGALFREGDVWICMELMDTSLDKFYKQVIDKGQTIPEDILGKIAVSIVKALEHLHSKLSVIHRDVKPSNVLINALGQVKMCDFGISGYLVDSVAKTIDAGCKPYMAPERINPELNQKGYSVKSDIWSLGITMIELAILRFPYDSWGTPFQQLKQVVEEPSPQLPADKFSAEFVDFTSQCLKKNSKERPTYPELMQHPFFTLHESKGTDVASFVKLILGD
The target of another assay is RIPK2 (Homo sapiens, UniProt O43353). Put plainly: Kinase profiling. In kind it is biochemical. The settings on record: 0.1 or 1 μM inhibitor; mean of triplicate. As to the method:
as §3

Sequence of EPH-B2 (P29323 19-1055): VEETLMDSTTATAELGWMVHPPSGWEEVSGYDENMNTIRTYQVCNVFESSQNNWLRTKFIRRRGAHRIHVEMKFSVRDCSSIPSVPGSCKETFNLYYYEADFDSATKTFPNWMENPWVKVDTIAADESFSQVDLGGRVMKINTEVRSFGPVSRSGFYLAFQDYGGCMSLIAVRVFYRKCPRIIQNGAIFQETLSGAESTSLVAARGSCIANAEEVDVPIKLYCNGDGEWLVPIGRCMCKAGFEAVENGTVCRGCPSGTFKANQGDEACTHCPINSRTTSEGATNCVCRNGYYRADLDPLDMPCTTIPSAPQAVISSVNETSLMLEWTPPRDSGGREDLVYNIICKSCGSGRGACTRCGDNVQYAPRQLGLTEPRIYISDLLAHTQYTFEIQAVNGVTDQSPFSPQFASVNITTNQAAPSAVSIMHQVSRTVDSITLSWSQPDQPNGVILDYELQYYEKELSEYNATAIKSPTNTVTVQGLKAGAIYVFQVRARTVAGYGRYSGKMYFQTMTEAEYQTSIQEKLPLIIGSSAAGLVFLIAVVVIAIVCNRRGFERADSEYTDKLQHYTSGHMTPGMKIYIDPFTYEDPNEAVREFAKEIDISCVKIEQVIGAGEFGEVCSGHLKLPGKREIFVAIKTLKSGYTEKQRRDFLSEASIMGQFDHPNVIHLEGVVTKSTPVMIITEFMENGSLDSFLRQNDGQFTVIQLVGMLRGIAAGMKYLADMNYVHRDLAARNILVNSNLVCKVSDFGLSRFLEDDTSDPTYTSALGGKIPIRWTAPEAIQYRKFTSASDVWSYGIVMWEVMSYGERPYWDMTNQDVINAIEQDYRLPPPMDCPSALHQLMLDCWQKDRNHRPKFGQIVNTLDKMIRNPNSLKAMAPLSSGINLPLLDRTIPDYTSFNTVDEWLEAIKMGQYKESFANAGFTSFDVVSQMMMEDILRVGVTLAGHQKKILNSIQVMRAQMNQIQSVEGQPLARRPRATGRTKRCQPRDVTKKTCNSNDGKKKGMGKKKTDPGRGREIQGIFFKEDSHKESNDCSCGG
Sequence of RIPK2 (O43353 whole entry): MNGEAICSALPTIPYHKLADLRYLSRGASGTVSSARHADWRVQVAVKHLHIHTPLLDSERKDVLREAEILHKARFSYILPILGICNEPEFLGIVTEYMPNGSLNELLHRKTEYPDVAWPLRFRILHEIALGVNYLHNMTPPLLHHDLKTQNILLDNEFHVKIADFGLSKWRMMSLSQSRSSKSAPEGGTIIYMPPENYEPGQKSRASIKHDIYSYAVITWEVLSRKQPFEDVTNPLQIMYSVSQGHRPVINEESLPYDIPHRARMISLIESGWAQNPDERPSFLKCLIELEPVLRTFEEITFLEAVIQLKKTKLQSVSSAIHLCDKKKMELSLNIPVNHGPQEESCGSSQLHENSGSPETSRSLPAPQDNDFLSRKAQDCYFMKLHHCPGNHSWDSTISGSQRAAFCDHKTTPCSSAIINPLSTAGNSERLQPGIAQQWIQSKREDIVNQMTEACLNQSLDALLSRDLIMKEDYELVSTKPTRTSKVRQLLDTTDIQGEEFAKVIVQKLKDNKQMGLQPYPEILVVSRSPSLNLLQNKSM
Sequence of GSK3β (P49841 whole entry): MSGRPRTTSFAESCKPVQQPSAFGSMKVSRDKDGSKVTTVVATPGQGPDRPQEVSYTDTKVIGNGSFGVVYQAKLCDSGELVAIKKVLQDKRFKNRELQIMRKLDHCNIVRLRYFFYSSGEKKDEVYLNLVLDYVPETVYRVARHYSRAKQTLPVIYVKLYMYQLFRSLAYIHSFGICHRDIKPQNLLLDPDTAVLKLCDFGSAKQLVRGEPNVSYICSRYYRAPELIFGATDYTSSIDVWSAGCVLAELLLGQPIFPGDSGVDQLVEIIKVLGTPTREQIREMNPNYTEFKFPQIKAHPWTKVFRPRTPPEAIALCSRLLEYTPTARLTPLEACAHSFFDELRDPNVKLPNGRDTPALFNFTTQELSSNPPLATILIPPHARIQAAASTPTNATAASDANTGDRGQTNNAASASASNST

In the case of `Cc1nc(Nc2cnn(C3CCNCC3)c2)nc2c1N(C)C(=O)c1cc3ccccc3cc1N2C` [HTH-01-015], the “Proliferation of U2OS cells (in words)” value with U2OS cells is “suppressed proliferation”. Moreover, the “Block of MYPT1 Ser445 phosphorylation (in words)” value in assay [1] was “failed to block”. Besides, in assay [2], the “Suppression of MYPT1 phosphorylation (in words)” value is “markedly suppressed”. The “Proliferation of MEFs (in words)” value with MEFs is reported as “suppressed proliferation”. Moreover, the “Cell migration in wound-healing assay (in words)” value in the assay with NUAK1+/+ MEFs is given as “markedly reduced cell migration”. In addition, the “MLK1 activity, percentage of DMSO control” value at MLK1 was found to be 102 percentage. Besides, on EPH-B2, the “EPH-B2 activity, percentage of DMSO control” value worked out at 97 percentage. Moreover, the “GSK3β activity, percentage of DMSO control” value at GSK3β is listed as 119 percentage. The “TLK1 activity, percentage of DMSO control” value at TLK1 is 106 percentage. Moreover, at MINK1, the “MINK1 activity, percentage of DMSO control” value was 101 percentage. The “MKK6 activity, percentage of DMSO control” value on MKK6 turned out to be 87 percentage. Further, the “RIPK2 activity, percentage of DMSO control” value at RIPK2 is on record as 88 percentage.

On to `CCC(=O)Nc1cccc(Oc2nc(Nc3ccc(N4CCN(C)CC4)cc3OC)ncc2Cl)c1` [WZ4003], for which, in the assay with U2OS cells, the “Proliferation of U2OS cells (in words)” value is listed as “suppressed proliferation”. Moreover, the “Block of MYPT1 Ser445 phosphorylation (in words)” value in assay [1] was “failed to block”. Also, the “Suppression of MYPT1 phosphorylation (in words)” value in assay [2] is “markedly suppressed”. Also, in the assay on MEFs, the “Proliferation of MEFs (in words)” value is given as “suppressed proliferation”. Besides, the “Cell migration in wound-healing assay (in words)” value in the assay on NUAK1+/+ MEFs is on record as “markedly reduced cell migration”. Besides, on MLK1, the “MLK1 activity, percentage of DMSO control” value is on record as 69 percentage. Moreover, the “EPH-B2 activity, percentage of DMSO control” value on EPH-B2 is 107 percentage. Moreover, the “GSK3β activity, percentage of DMSO control” value on GSK3β turned out to be 88 percentage. Moreover, the “TLK1 activity, percentage of DMSO control” value at TLK1 is reported as 91 percentage. Also, the “MINK1 activity, percentage of DMSO control” value on MINK1 is on record as 120 percentage. The “MKK6 activity, percentage of DMSO control” value at MKK6 came out at 101 percentage. At RIPK2, the “RIPK2 activity, percentage of DMSO control” value is reported as 105 percentage.

The values are drawn from publication PMC3969223, “Characterization of WZ4003 and HTH-01-015 as selective inhibitors of the LKB1-tumour-suppressor-activated NUAK kinases” (Biochemical Journal, 2013).
